SMILES strings stand for the structures.

human ACC2, sequence (O00763 129-2458): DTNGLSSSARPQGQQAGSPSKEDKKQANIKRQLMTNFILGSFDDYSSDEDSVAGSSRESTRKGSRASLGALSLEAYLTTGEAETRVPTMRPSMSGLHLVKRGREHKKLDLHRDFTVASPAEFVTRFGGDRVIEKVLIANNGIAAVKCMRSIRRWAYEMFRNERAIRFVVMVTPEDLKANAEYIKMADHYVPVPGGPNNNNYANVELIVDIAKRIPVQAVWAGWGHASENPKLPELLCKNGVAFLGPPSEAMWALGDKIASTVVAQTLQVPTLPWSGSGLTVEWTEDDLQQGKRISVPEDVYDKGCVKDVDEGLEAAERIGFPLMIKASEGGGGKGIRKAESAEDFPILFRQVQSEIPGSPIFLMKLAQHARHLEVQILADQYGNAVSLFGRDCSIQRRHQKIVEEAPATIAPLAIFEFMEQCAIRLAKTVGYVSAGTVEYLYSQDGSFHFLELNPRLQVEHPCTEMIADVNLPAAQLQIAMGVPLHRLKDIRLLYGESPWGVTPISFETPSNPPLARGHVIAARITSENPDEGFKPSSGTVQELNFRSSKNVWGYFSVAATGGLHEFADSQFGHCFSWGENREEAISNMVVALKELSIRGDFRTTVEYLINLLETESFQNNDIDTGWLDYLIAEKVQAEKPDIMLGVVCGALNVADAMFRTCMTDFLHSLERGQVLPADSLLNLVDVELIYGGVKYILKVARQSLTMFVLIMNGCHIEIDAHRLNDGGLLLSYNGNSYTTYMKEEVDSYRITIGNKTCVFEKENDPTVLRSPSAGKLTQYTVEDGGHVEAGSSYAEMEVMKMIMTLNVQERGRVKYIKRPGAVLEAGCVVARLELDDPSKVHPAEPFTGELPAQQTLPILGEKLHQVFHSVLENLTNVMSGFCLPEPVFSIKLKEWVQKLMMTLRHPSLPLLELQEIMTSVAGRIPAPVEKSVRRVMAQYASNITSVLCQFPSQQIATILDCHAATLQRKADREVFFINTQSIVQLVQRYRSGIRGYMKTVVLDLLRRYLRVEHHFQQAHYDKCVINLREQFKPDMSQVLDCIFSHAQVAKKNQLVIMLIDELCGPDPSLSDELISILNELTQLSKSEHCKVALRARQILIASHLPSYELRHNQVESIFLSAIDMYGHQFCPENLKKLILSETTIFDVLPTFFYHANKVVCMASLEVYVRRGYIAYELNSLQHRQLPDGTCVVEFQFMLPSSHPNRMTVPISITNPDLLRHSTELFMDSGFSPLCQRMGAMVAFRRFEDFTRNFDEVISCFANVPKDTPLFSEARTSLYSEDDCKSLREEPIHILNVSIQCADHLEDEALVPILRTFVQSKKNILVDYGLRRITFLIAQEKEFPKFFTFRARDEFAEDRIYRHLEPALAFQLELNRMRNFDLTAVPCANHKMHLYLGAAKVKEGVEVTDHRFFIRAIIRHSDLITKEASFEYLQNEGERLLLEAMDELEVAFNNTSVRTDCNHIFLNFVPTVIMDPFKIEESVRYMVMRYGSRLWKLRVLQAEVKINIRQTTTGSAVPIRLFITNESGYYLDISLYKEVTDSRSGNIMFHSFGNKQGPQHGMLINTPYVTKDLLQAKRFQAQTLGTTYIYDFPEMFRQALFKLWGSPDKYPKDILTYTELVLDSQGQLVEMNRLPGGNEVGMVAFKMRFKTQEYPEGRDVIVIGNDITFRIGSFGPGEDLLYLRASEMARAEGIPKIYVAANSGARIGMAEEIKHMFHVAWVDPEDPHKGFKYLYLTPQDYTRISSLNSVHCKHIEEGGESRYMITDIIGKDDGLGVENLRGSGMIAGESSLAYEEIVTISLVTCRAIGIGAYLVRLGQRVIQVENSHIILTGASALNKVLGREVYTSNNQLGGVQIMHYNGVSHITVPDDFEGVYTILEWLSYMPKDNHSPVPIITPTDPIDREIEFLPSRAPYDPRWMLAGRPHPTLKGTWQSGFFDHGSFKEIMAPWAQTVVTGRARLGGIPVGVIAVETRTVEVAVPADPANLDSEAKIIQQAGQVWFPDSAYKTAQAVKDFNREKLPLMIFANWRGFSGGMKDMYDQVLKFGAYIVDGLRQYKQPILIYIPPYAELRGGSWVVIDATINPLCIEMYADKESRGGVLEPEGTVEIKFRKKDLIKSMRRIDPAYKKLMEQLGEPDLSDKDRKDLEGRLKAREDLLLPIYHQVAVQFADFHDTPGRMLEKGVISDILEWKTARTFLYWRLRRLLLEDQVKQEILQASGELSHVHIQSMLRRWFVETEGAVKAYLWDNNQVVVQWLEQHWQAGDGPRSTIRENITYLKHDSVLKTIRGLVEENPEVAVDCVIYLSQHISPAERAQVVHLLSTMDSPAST

The assay has as its target human ACC2 (Homo sapiens (Human), UniProt O00763). Kind of assay: ACC2 assay, spectrophotometric 384 well assay (NADH-linked, coupled lactate dehydrogenase/pyruvate kinase reaction). It is filed as biochemical. As to conditions: hACC2 construct lacking the 128 N-terminal amino acids; 25° C., 340 nm over 15 minutes. Here is the method:
Spectrophotometric 384 Well Assay
Malonyl CoA formation by acetyl CoA carboxylases is stoichometrically linked to the consumption of ATP. ACC2 activity is measured in a NADH-linked kinetic method measuring ADP generated during the ACC reaction using a coupled lactate dehydrogenase/pyruvate kinase reaction.
For biological testing, a human ACC2 construct which lacks the 128 amino acids at the N-terminus for increased solubility (nt 385-6966 in Genbank entry AJ575592) is cloned. The protein is then expressed in insect cells using a baculoviral expression system. Protein purification is performed by anion exchange.
All compounds are dissolved in dimethyl sulfoxide (DMSO) to a concentration of 10 mM.
Assay reactions are then carried out in 384-well plates, with hACC2 in an appropriate dilution and at final assay concentrations (f.c.) of 100 mM Tris (pH 7.5), 10 mM trisodium citrate, 25 mM KHCO3, 10 mM MgCl2, 0.5 mg/mL BSA, 3.75 mM reduced L-glutathione, 15 U/mL lactate dehydrogenase, 0.5 mM phosphoenolpyruvate, 15 U/mL pyruvate kinase, compounds at different concentrations at final DMSO concentrations of 1%.
The enzymatic reaction is then started by addition of a mixture of NADH, acetyl Coenzyme A (both 200 μM f.c.) and ATP (500 uM f.c.). The decrease of the optical density (slope S) is then determined at 25° C. at a wavelength of 340 nm over 15 minutes in a spectrophotometric reader.
Each assay microtiter plate contains wells with vehicle instead of compound as controls for the non-inhibited enzyme (100% CTL; ‘HIGH’) and wells without acetyl-CoA as controls for non-specific NADH degradation (0% CTL; ‘LOW’).
The slope S is used for calculation of % CTL=(S(compound)−S(‘LOW’))/(S(‘HIGH’)−S(‘LOW’))*100. Compounds will give values between 100% CTL (no inhibition) and 0% CTL (complete inhibition).
For IC50 value determination, the sample slope in the presence of the test compound after subtraction of the low controls (S(compound)−S(‘LOW’)) are used. An IC50 value is derived from the compound slopes at different dosages after subtraction of the low controls (S(compound)−S(‘LOW’)) by non-linear regression curve fitting (equation y=(A+((B−A)/(1+((C/x)^D))))).
The IC50 is the concentration needed to halve the response being measured. Low readings indicate higher potency, high ones lower potency. Compound `CCCCOc1cc(C#Cc2ccc(CC(C)NC(C)=O)cc2)ccn1` (stereo not shown) [Example 2.96] displayed an IC50 of 130 nM.

Consider `CC(=O)NC(C)Cc1ccc(C#Cc2ccnc(OC(C)C)c2)cc1` (stereo not shown) [Example 2.97], for which half-maximal inhibition (IC50) required 140 nM.

Turning to `CC(=O)NC(C)Cc1ccc(C#Cc2ccnc(Oc3ccccc3)c2)cc1` (stereo not shown) [Example 2.98], the 50% inhibitory concentration (IC50) came to 150 nM.

As for `CC(=O)NC(C)Cc1ccc(C#Cc2ncc(Cl)cn2)cc1` (stereo not shown) [Example 2.99], the IC50 came to 7400 nM.

`CC(=O)NC(C)Cc1ccc(C#Cc2ccc(OC3CC3)cc2)cc1` (stereo not shown) [Example 2.100] yielded an IC50 of 120 nM.

Compound `CSc1ccc(C#Cc2ccc(C(C)NC(C)=O)cc2)cc1` (stereo not shown) [Example 2.101] had a concentration for half-maximal inhibition (IC50) of 350 nM.

Turning to `CCOc1cc(C#Cc2ccc(C(C)NC(C)=O)cc2)ccn1` (stereo not shown) [Example 2.102], half-maximal inhibition (IC50) required 580 nM.

In the case of `CC(=O)NC(C)c1ccc(C#Cc2cccc(OCc3ccccc3)c2)cc1` (stereo not shown) [Example 2.103], 500 nM corresponded to half-maximal inhibition (IC50).

On to `COc1ccc(C#Cc2ccc(C(C)NC(C)=O)cc2)cc1` (stereo not shown) [Example 2.104], for which the half-inhibitory concentration (IC50) worked out at 1500 nM.

Consider `CC(=O)NC(C)c1ccc(C#Cc2cnn(Cc3ccccc3)c2)cc1` (stereo not shown) [Example 2.105], for which the concentration for half-maximal inhibition (IC50) amounted to 930 nM.

`CC(=O)NC(C)Cc1ccc(C#Cc2c(C)noc2C)cc1` (stereo not shown) [Example 2.106] gave an IC50 of 8200 nM.

Take `CC(=O)NC(C)Cc1ccc(C#Cc2cnn(C)c2)cc1` (stereo not shown) [Example 2.107]: the midpoint of inhibition, the IC50, lay at 4900 nM.

The compound `CC(=O)NC(C)Cc1ccc(C#Cc2cnn(Cc3ccccc3)c2)cc1` (stereo not shown) [Example 2.108] displayed a half-inhibitory concentration (IC50) of 300 nM.

Take `COCc1ccc(C#Cc2ccc(CC(C)NC(C)=O)cc2)cc1` (stereo not shown) [Example 2.109]: the IC50 was determined as 790 nM.

Consider `CC(=O)NC(C)Cc1ccc(C#Cc2ccc(C)cc2Cl)cc1` (stereo not shown) [Example 3.2], for which the concentration for half-maximal inhibition (IC50) was determined as 270 nM.

On to `COc1cc(C#Cc2ccc(CC(C)NC(C)=O)cc2)ccc1Cl` (stereo not shown) [Example 3.3], for which the 50% inhibitory concentration (IC50) is 1300 nM.

`COc1c(F)cc(C#Cc2ccc(CC(C)NC(C)=O)cc2)cc1F` (stereo not shown) [Example 3.4]: half-maximal inhibition (IC50) required 560 nM.

`CC(=O)NC(C)Cc1ccc(C#Cc2ccc3cc[nH]c3c2)cc1` (stereo not shown) [Example 3.5] registered an IC50 of 660 nM.

With `CC(=O)NC(C)Cc1ccc(C#Cc2ccc(Cl)c(C#N)c2)cc1` (stereo not shown) [Example 3.6], 2300 nM corresponded to half-maximal inhibition (IC50).

The compound `CC(=O)NC(C)Cc1ccc(C#Cc2cc3c(cc2C#N)OCO3)cc1` (stereo not shown) [Example 3.7] had a 50% inhibitory concentration (IC50) of 10600 nM.

Compound `COc1ccc(Cl)c(C#Cc2ccc(CC(C)NC(C)=O)cc2)c1` (stereo not shown) [Example 3.8] displayed a 50% inhibitory concentration (IC50) of 690 nM.

The compound `CC(=O)NC(C)Cc1ccc(C#Cc2ccnc(OCc3ccccc3)c2)cc1` (stereo not shown) [Example 3.9] displayed an IC50 of 260 nM.

In the case of `COC(=O)c1cc(C#Cc2ccc(CC(C)NC(C)=O)cc2)ccn1` (stereo not shown) [Example 3.10], 4500 nM corresponded to half-maximal inhibition (IC50).

As to `COc1ccc(C#Cc2ccc(CC(C)NC(C)=O)cc2)nc1` (stereo not shown) [Example 3.11], the IC50 stood at 4300 nM.

In turn, `COc1ccc(C#Cc2ccc(CC(C)NC(C)=O)cc2)c(C#N)c1` (stereo not shown) [Example 3.12] yielded an IC50 of 1200 nM.

Compound `CC(=O)NC(C)Cc1ccc(C#Cc2cccc(N(C)C)n2)cc1` (stereo not shown) [Example 3.13] came in with a concentration for half-maximal inhibition (IC50) of 1700 nM.

The compound `CC(=O)NC(C)Cc1ccc(C#Cc2ccc3c(c2)OCCO3)cc1` (stereo not shown) [Example 3.14] came in with a half-maximal inhibitory concentration (IC50) of 220 nM.

Take `COc1ccc(C#Cc2ccc(CC(C)NC(C)=O)cc2)c(Cl)c1` (stereo not shown) [Example 3.15]: the IC50 turned out to be 350 nM.

In the case of `CC(=O)NC(C)Cc1ccc(C#Cc2nccs2)cc1` (stereo not shown) [Example 3.16], 4700 nM corresponded to half-maximal inhibition (IC50).

`COC(=O)c1ccc(C#Cc2ccc(CC(C)NC(C)=O)cc2)o1` (stereo not shown) [Example 3.17] registered an IC50 of 880 nM.

`CCCC(=O)NC(C)Cc1ccc(C#Cc2ccc(OCC)cc2)cc1` (stereo not shown) [Example 4.1, N-(1-(4-((4-ethoxyphenyl)ethynyl)phenyl)propan-2-yl)butyramide] showed an IC50 of 210 nM.

Regarding `CCOc1ccc(C#Cc2ccc(CC(C)NC(=O)C(C)C)cc2)cc1` (stereo not shown) [Example 4.2], half-maximal inhibition (IC50) required 190 nM.

With `C/C=C/C(=O)NC(C)Cc1ccc(C#Cc2ccc(OCC)cc2)cc1` (stereo not shown) [Example 4.3], the IC50 came to 220 nM.

The compound `CCOc1ccc(C#Cc2ccc(CC(C)NC(=O)C3CC3)cc2)cc1` (stereo not shown) [Example 4.4] showed an IC50 of 150 nM.

In the case of `CCOc1ccc(C#Cc2ccc(CC(C)NC(=O)C(C)O)cc2)cc1` (stereo not shown) [Example 4.5], the half-inhibitory concentration (IC50) is 1500 nM.

On to `CCOc1ccc(C#Cc2ccc(CC(C)NC(=O)COC)cc2)cc1` (stereo not shown) [Example 4.6], for which half-maximal inhibition (IC50) was put at 970 nM.

In the case of `CCOc1ccc(C#Cc2ccc(CC(C)NC(=O)CC)cc2)cc1` (stereo not shown) [Example 4.7], the midpoint of inhibition, the IC50, lay at 120 nM.

Take `C=CC(=O)NC(C)Cc1ccc(C#Cc2ccc(OCC)cc2)cc1` (stereo not shown) [Example 4.8]: inhibition was half-maximal at 460 nM (IC50).

Consider `CCOc1ccc(C#Cc2ccc(CC(C)NC(=O)CC#N)cc2)cc1` (stereo not shown) [Example 4.9], for which it took 400 nM to reach half-maximal inhibition (IC50).

Turning to `CCOc1ccc(C#Cc2ccc(CC(C)NC(=O)CN(C)C)cc2)cc1` (stereo not shown) [Example 4.10], half-maximal inhibition (IC50) required 1100 nM.

As to `CCOc1ccc(C#Cc2ccc(CC(C)NC(=O)CCOC)cc2)cc1` (stereo not shown) [Example 4.11], inhibition was half-maximal at 1400 nM (IC50).

Compound `CCOc1ccc(C#Cc2ccc(CC(C)NC(=O)C3(O)CC3)cc2)cc1` (stereo not shown) [Example 4.12] had a 50% inhibitory concentration (IC50) of 560 nM.

Compound `CCOc1ccc(C#Cc2ccc(CC(C)NC(=O)CCC#N)cc2)cc1` (stereo not shown) [Example 4.13] gave an IC50 of 680 nM.

On to `CCOc1ccc(C#Cc2ccc(CC(C)NC(=O)c3cncnc3)cc2)cc1` (stereo not shown) [Example 4.14], for which the IC50 was 1200 nM.

`CCOc1ccc(C#Cc2ccc(CC(C)NC(=O)CS(C)(=O)=O)cc2)cc1` (stereo not shown) [Example 4.15] gave a half-inhibitory concentration (IC50) of 780 nM.

With `CCOc1ccc(C#Cc2ccc(CC(C)NC(=O)c3cc[nH]n3)cc2)cc1` (stereo not shown) [Example 4.16], inhibition was half-maximal at 1600 nM (IC50).

Compound `CCOc1ccc(C#Cc2ccc(CC(C)NC(=O)C=C(C)C)cc2)cc1` (stereo not shown) [Example 4.17] came in with an IC50 of 470 nM.

`CCOc1ccc(C#Cc2ccc(CC(C)NC(=O)CCO)cc2)cc1` (stereo not shown) [Example 4.18] registered a 50% inhibitory concentration (IC50) of 460 nM.

In turn, `CCOc1ccc(C#Cc2ccc(CC(C)NC(=O)c3ccccc3)cc2)cc1` (stereo not shown) [Example 4.19] came in with a half-maximal inhibitory concentration (IC50) of 2800 nM.

`CCOc1ccc(C#Cc2ccc(CC(C)NC(=O)C3CCC3)cc2)cc1` (stereo not shown) [Example 4.20] had an IC50 of 180 nM.

On to `CCOc1ccc(C#Cc2ccc(CC(C)NC(=O)C3(C)CC3)cc2)cc1` (stereo not shown) [Example 4.21], for which the concentration for half-maximal inhibition (IC50) was 140 nM.

Turning to `CCOc1ccc(C#Cc2ccc(CC(C)NC(=O)c3ccncc3)cc2)cc1` (stereo not shown) [Example 4.22], the IC50 came to 930 nM.

Regarding `CCOc1ccc(C#Cc2ccc(CC(C)NC(=O)CC(C)C)cc2)cc1` (stereo not shown) [Example 4.23], it took 310 nM to reach half-maximal inhibition (IC50).

As for `CCOc1ccc(C#Cc2ccc(CC(C)NC(=O)C(=O)CC)cc2)cc1` (stereo not shown) [Example 4.24], the IC50 was 1000 nM.

`CCCCC(=O)NC(C)Cc1ccc(C#Cc2ccc(OCC)cc2)cc1` (stereo not shown) [Example 4.25]: the IC50 is 540 nM.

`CCOc1ccc(C#Cc2ccc(CC(C)NC(=O)C(F)F)cc2)cc1` (stereo not shown) [Example 4.26] showed a half-maximal inhibitory concentration (IC50) of 230 nM.

For the compound `CCOc1ccc(C#Cc2ccc(CC(C)NC(=O)CNC)cc2)cc1` (stereo not shown) [Example 4.29], the IC50 amounted to 2700 nM.

The compound `CCOc1ccc(C#Cc2ccc(CC(C)NC(=O)C(O)C(C)C)cc2)cc1` (stereo not shown) [Example 4.30] returned a 50% inhibitory concentration (IC50) of 1700 nM.

Compound `CCOc1ccc(C#Cc2ccc(CC(C)NC(=O)CF)cc2)cc1` (stereo not shown) [Example 4.31] yielded an IC50 of 410 nM.

Consider `CCOc1ccc(C#Cc2ccc(CC(C)NC(=O)C3CNC(=O)C3)cc2)cc1` (stereo not shown) [Example 4.32], for which inhibition was half-maximal at 440 nM (IC50).

`CCOc1ccc(C#Cc2ccc(CC(C)NC(=O)C3CCOC3)cc2)cc1` (stereo not shown) [Example 4.33] gave an IC50 of 490 nM.

The compound `CCOc1ccc(C#Cc2ccc(CC(C)NC(=O)C3CNC3)cc2)cc1` (stereo not shown) [Example 4.34] gave a 50% inhibitory concentration (IC50) of 600 nM.

In the case of `CCOc1ccc(C#Cc2ccc(CC(C)NC(=O)C3CC3C)cc2)cc1` (stereo not shown) [Example 4.35], the concentration for half-maximal inhibition (IC50) was 380 nM.

With `CCOc1ccc(C#Cc2ccc(CC(C)NC(=O)C3CCCO3)cc2)cc1` (stereo not shown) [Example 4.37], half-maximal inhibition (IC50) required 900 nM.

In the case of `CCOc1ccc(C#Cc2ccc(CC(C)NC(=O)c3cnco3)cc2)cc1` (stereo not shown) [Example 4.38], the half-inhibitory concentration (IC50) amounted to 170 nM.

`C=CC(=O)NC(C)c1ccc(C#Cc2ccc(OCC)cc2)cc1` (stereo not shown) [Example 4.39] displayed an IC50 of 710 nM.

With `CCOc1ccc(C#Cc2ccc(C(C)NC(=O)C(C)O)cc2)cc1` (stereo not shown) [Example 4.40], the IC50 was 3700 nM.

On to `CCOc1ccc(C#Cc2ccc(C(C)NC(=O)C3CC3)cc2)cc1` (stereo not shown) [Example 4.41], for which the IC50 is 2000 nM.

Turning to `CCOc1ccc(C#Cc2ccc(C(C)NC(=O)CCO)cc2)cc1` (stereo not shown) [Example 4.43], half-maximal inhibition (IC50) was put at 11000 nM.

`CCOc1ccc(C#Cc2ccc(C(C)NC(=O)C3(C)CC3)cc2)cc1` (stereo not shown) [Example 4.44] showed an IC50 of 1500 nM.

(Values after patent US8835472B2, “Compounds, pharmaceutical compositions and uses thereof” (Boehringer Ingelheim International GmbH, priority 2010, dated 2014).)
